Test results from ChEMBL document CHEMBL1201862, “PubChem BioAssay data set” (2004).
Values joined by “and” are separate entries in the source; they are usually repeats but may differ in a detail not shown here. Identical values can stand only once.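 Each compound was tested at five concentrations against cells in 96-well plates for 48 hours. Abbreviation: GI50, concentration required for 50% inhibition of growth.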 Active and inactive are the calls of the source. Cut-off read from the data, not from the text of the source: active = GI50 up to about 1.1 µM and inactive = higher.

Legend:
Assay in all cases: DTP human tumour cell line panel, 48 h
MDA-MB-435 = test system: MDA-MB-435
NCI-H522 = test system: NCI-H522
HOP-92 = test system: HOP-92
OVCAR-5 = test system: OVCAR-5
CCRF-CEM = test system: CCRF-CEM
COLO 205 = test system: COLO 205
CAKI-1 = test system: CAKI-1
MCF7 = test system: MCF7
DU-145 = test system: DU-145
PC-3 = test system: PC-3
IGROV-1 = test system: IGROV-1
BT-549 = test system: BT-549
HL-60 = test system: HL-60
UO-31 = test system: UO-31
HOP-62 = test system: HOP-62
SF-539 = test system: SF-539
HT-29 = test system: HT-29
SW-620 = test system: SW-620
NCI-H460 = test system: NCI-H460
MDA-MB-231 = test system: MDA-MB-231

Compound | GI50 (MDA-MB-435) | GI50 (NCI-H522) | GI50 (HOP-92) | GI50 (OVCAR-5) | GI50 (CCRF-CEM) | GI50 (COLO 205) | GI50 (CAKI-1) | GI50 (MCF7) | GI50 (DU-145) | GI50 (PC-3) | GI50 (IGROV-1) | GI50 (BT-549) | GI50 (HL-60) | GI50 (UO-31) | GI50 (HOP-62) | GI50 (SF-539) | GI50 (HT-29) | GI50 (SW-620) | GI50 (NCI-H460) | GI50 (MDA-MB-231)
CCOc1cc2c(cc1O)CC[C@@H]1[C@@H]2CC[C@]2(C)[C@@H](O)CC[C@@H]12 | 0.0112 µM (active) | < 0.0117 µM (active) | 0.0537 µM (active) | 10.8 µM (inactive) | 0.0274 µM (active) | 12.7 µM (inactive) | 0.0644 µM (active) | 0.0287 µM (active) | 0.0547 µM (active) | 1.62 µM (inactive) | 1.18 µM (inactive) | 0.0125 µM (active) | 0.014 µM (active) | 0.256 µM (active) | 0.0447 µM (active) | 0.0158 µM (active) | 4.88 µM (inactive) | 0.0183 µM (active) | 0.0228 µM (active) | 0.188 µM (active)
CC(C)=CCNc1ncnc2c1c(C#N)cn2C1OC(CO)C(O)C1O (configuration not stated) | 31.1 µM (inactive) | 7.64 µM (inactive) | 24.3 µM (inactive) | > 66.2 µM (inactive) | 3.85 µM (inactive) | 0.716 µM (active) | 73.8 µM (inactive) | < 0.019 µM (active) | 10.9 µM (inactive) | 32.5 µM (inactive) | 0.431 µM (active) | > 100 µM (inactive) | 9.12 µM (inactive) | 32.8 µM (inactive) | 53.1 µM (inactive) | > 72.1 µM (inactive) | 12.3 µM (inactive) | 10 µM (inactive) | 4.02 µM (inactive) | 33.7 µM (inactive)
CCC(C)C1=C(O)[N+]2([O-])Oc3ccc(-c4c(O)c(O)c(-c5ccc(OC(C)=O)cc5)c(OC(C)=O)c4OC(C)=O)cc3OC2(C(C)CC)C(=O)N1O (configuration not stated) | 26.1 µM (inactive) and 22.9 µM (inactive) | 14.4 µM (inactive) and 16.1 µM (inactive) | 8.17 µM (inactive) and 10 µM (inactive) | > 50 µM (inactive) | 19.3 µM (inactive) and 19.2 µM (inactive) | > 50 µM (inactive) | > 50 µM (inactive) | > 50 µM (inactive) | > 50 µM (inactive) | > 50 µM (inactive) | 25.6 µM (inactive) and 17.1 µM (inactive) | 45.6 µM (inactive) | 24 µM (inactive) and 27.4 µM (inactive) | > 50 µM (inactive) | > 50 µM (inactive) | > 50 µM (inactive) | > 50 µM (inactive) | 24.2 µM (inactive) | > 50 µM (inactive) | > 50 µM (inactive)
COc1ccc(CCNC(=O)Cc2cc(OC)c(OC)cc2CO)cc1OC | > 100 µM (inactive) | > 100 µM (inactive) | > 100 µM (inactive) | > 100 µM (inactive) | > 100 µM (inactive) | > 100 µM (inactive) | > 100 µM (inactive) | > 100 µM (inactive) | > 100 µM (inactive) | > 100 µM (inactive) | > 100 µM (inactive) | > 100 µM (inactive) | > 100 µM (inactive) | > 100 µM (inactive) | > 100 µM (inactive) | > 100 µM (inactive) | > 100 µM (inactive) | > 100 µM (inactive) | > 100 µM (inactive) | > 100 µM (inactive)
CCOC(=O)C(C(=S)Nc1ccccc1)c1nn2c(=O)cc(C)nc2s1 (configuration not stated) | 20.9 µM (inactive) | 22.3 µM (inactive) | 16.4 µM (inactive) | 35.3 µM (inactive) | 33.8 µM (inactive) | 20.1 µM (inactive) | 20.1 µM (inactive) | 19.4 µM (inactive) | 36.3 µM (inactive) | 24.8 µM (inactive) | 36.7 µM (inactive) | 25.2 µM (inactive) | 20.5 µM (inactive) | 22.2 µM (inactive) | 65 µM (inactive) | 22.9 µM (inactive) | 19.3 µM (inactive) | 46.7 µM (inactive) | 31.6 µM (inactive) | 31.8 µM (inactive)
O=C1CC(NC2CC(=O)c3c(Br)sc(Br)c32)c2c(Br)sc(Br)c21 (configuration not stated) | 3.72 µM (inactive) | 1.81 µM (inactive) | 6 µM (inactive) | 20.2 µM (inactive) | 0.998 µM (active) | 3.04 µM (inactive) | 3.63 µM (inactive) | 2.81 µM (inactive) | 4.58 µM (inactive) | 2.48 µM (inactive) | 2.99 µM (inactive) | 14.1 µM (inactive) | 2.46 µM (inactive) | 2.24 µM (inactive) | 2.99 µM (inactive) | 1.27 µM (inactive) | 2.84 µM (inactive) | 2.08 µM (inactive) | 18 µM (inactive) | 3.42 µM (inactive)
O=C(/C(=C\I)c1ccccc1)c1ccccc1 | 12.6 µM (inactive) | 4.86 µM (inactive) | 13.7 µM (inactive) | 17.5 µM (inactive) | 14.5 µM (inactive) | 3.63 µM (inactive) | 1.51 µM (inactive) | 1.8 µM (inactive) | 7.16 µM (inactive) | 2.71 µM (inactive) | 10.8 µM (inactive) | 16.3 µM (inactive) | 0.458 µM (active) | 7.78 µM (inactive) | 4.19 µM (inactive) | 15.2 µM (inactive) | 1.93 µM (inactive) | 4.57 µM (inactive) | 10.9 µM (inactive) | 3.94 µM (inactive)
O=C1C/C(=C\O)C(=O)c2ccccc2N1 | > 100 µM (inactive) | > 100 µM (inactive) | > 100 µM (inactive) | > 100 µM (inactive) | > 100 µM (inactive) | > 100 µM (inactive) | > 100 µM (inactive) | > 100 µM (inactive) | > 100 µM (inactive) | > 100 µM (inactive) | > 100 µM (inactive) | > 100 µM (inactive) | > 100 µM (inactive) | > 100 µM (inactive) | > 100 µM (inactive) | > 100 µM (inactive) | > 100 µM (inactive) |  | > 100 µM (inactive) | > 100 µM (inactive)
C=C(Cl)C(Cl)(CCl)CCC(Br)C(C)(C)Br (configuration not stated) | > 10 µM (inactive) | > 10 µM (inactive) | > 10 µM (inactive) | > 10 µM (inactive) | > 10 µM (inactive) | > 10 µM (inactive) | > 10 µM (inactive) | > 10 µM (inactive) | > 10 µM (inactive) | > 10 µM (inactive) | > 10 µM (inactive) | > 10 µM (inactive) | > 10 µM (inactive) | > 10 µM (inactive) | > 10 µM (inactive) | > 10 µM (inactive) | > 10 µM (inactive) | > 10 µM (inactive) |  | > 10 µM (inactive)
Cc1cccc(C(C)C)c1NC(=O)C(=O)CC(=O)c1sc(Nc2ccccc2Cl)nc1C | 7.26 µM (inactive) | 40.5 µM (inactive) | 10.4 µM (inactive) | > 100 µM (inactive) | 30.3 µM (inactive) | 29.9 µM (inactive) | 85.3 µM (inactive) | 10.3 µM (inactive) | 71.4 µM (inactive) | 22.4 µM (inactive) | 46.3 µM (inactive) | 32.7 µM (inactive) | 16.1 µM (inactive) | 18.9 µM (inactive) | > 100 µM (inactive) | 4 µM (inactive) |  | 35.2 µM (inactive) | 22.1 µM (inactive) | 41 µM (inactive)
CCCC(=O)OCC1OC(n2cc(F)c(=O)[nH]c2=O)C(F)C1O (configuration not stated) | 61.5 µM (inactive) | > 75 µM (inactive) | > 100 µM (inactive) | > 100 µM (inactive) | 2.24 µM (inactive) | 24.5 µM (inactive) | > 10 µM (inactive) | 0.456 µM (active) | 5.5 µM (inactive) | > 100 µM (inactive) | > 76.7 µM (inactive) | 13.9 µM (inactive) | > 100 µM (inactive) | 74.8 µM (inactive) | 4.57 µM (inactive) | 0.774 µM (active) | > 86.3 µM (inactive) | > 100 µM (inactive) | 2.86 µM (inactive) | 38.1 µM (inactive)
CC(NNC(=O)c1cc[n+]([BH2-]C#N)cc1)C(F)(F)F (configuration not stated) | > 100 µM (inactive) | > 100 µM (inactive) | > 100 µM (inactive) | > 100 µM (inactive) | > 100 µM (inactive) | > 100 µM (inactive) | > 100 µM (inactive) | > 100 µM (inactive) | > 100 µM (inactive) | > 100 µM (inactive) | > 100 µM (inactive) | > 100 µM (inactive) | > 100 µM (inactive) | > 100 µM (inactive) | > 100 µM (inactive) | > 100 µM (inactive) | > 100 µM (inactive) | > 100 µM (inactive) | > 100 µM (inactive) | > 100 µM (inactive)
CN(C)Cc1cc(C(=O)/C=C/c2ccccc2)cc(CN(C)C)c1O | 31.6 µM (inactive) | 19.5 µM (inactive) | 26.7 µM (inactive) | 87.5 µM (inactive) | 19.4 µM (inactive) | 17.8 µM (inactive) | 36.1 µM (inactive) | 30.8 µM (inactive) | 33 µM (inactive) | 12.6 µM (inactive) | 31.9 µM (inactive) | 19.9 µM (inactive) | 15.5 µM (inactive) | 17.5 µM (inactive) | 32.4 µM (inactive) | 19.7 µM (inactive) | 16.9 µM (inactive) | 18.2 µM (inactive) | 15.9 µM (inactive) | 21.9 µM (inactive)
COC(=O)NCCc1n[nH]c2c1C(=O)C=C(Nc1ccccc1OC)C2=O | 17.1 µM (inactive) | 24.1 µM (inactive) | 41.7 µM (inactive) | 61.4 µM (inactive) | 30.1 µM (inactive) | 24.3 µM (inactive) | 33.9 µM (inactive) | 16 µM (inactive) | 42.4 µM (inactive) | 31.6 µM (inactive) | 26.5 µM (inactive) | 25 µM (inactive) | 21.8 µM (inactive) | 42.2 µM (inactive) | 83.4 µM (inactive) | 17.5 µM (inactive) | 28.1 µM (inactive) | 20.8 µM (inactive) | 28.2 µM (inactive) | 27 µM (inactive)
